Measurements published in patent US7935825B2, “Arylsulfanyl and heteroarylsulfanyl derivatives for treating pain” (Allergan, Inc., priority 2001, dated 2011).
Where two headings read alike, the source gives them in different places.

What was measured:
tactile allodynia = assay: Chronic pain model: spinal nerve (L5/L6) ligation, tactile allodynia measured with von Frey hairs; type: in vivo; conditions: rats
From the text: A model for chronic pain (in particular peripheral neuropathy such as causalgia) involves the surgical ligation of the L5 (and optionally the L6) spinal nerves on one side in experimental animals. Rats recovering from the surgery gain weight and display a level of general activity similar to that of normal rats. However, these rats develop abnormalities of the foot, wherein the hindpaw is moderately everted and the toes are held together. More importantly, the hindpaw on the side affected by the surgery appears to become sensitive to pain from low-threshold mechanical stimuli, such as that producing a faint sensation of touch in a human, within about 1 week following surgery. This sensitivity to normally non-painful touch is called “tactile allodynia” and lasts for at least two months. The response includes lifting the affected hindpaw to escape from the stimulus, licking the paw and holding it in the air for many seconds. None of these responses is normally seen in the control group.
Rats are anesthetized before surgery. The surgical site is shaved and prepared either with betadine or Novacaine. Incision is made from the thoracic vertebra Xlll down toward the sacrum. Muscle tissue is separated from the spinal vertebra (left side) at the L4-S2 levels. The L6 vertebra is located and the transverse process is carefully removed with a small rongeur to expose the L4-L6 spinal nerves. The L5 and L6 spinal nerves are isolated and tightly ligated with 6-0 silk thread. The same procedure is done on the right side as a control, except no ligation of the spinal nerves is performed.
A complete hemostasis is confirmed, then the wounds are sutured. A small amount of antibiotic ointment is applied to the incised area, and the rat is transferred to the recovery plastic cage under a regulated heat-temperature lamp. On the day of the experiment, at least seven days after the surgery, six rats per test group are administered the test drugs by intraperitoneal (i.p.) injection or oral gavage. For i.p. injection, the compounds are formulated in approximately 50% DMSO and given in a volume of 1 ml/kg body weight. The compound of Example 7 was tested at doses ranging between 30 and 3000 ng/kg. A volume equal to 1 ml/kg body weight of an appropriate concentration (i.e.. 1 mg/ml for a 1 mg/kg dose) of the compound of Example 7 formulated in approximately 50% DMSO was injected using an 18-gauge, 3-inch gavage needle that is slowly inserted through the esophagus into the stomach.
Tactile allodynia is measured prior to and 30 minutes after drug administration using von Frey hairs that are a series of fine hairs with incremental differences in stiffness. Rats are placed in a plastic cage with a wire mesh bottom and allowed to acclimate for approximately 30 minutes. The von Frey hairs are applied perpendicularly through the mesh to the mid-plantar region of the rats' hindpaw with sufficient force to cause slight buckling and held for 6-8 seconds. The applied force has been calculated to range from 0.41 to 15.1 grams. If the paw is sharply withdrawn, it is considered a positive response. A normal animal will not respond to stimuli in this range, but a surgically ligated paw will be withdrawn in response to a 1-2 gram hair. The 50% paw withdrawal threshold is determined using the method of Dixon, W. J., Ann. Rev. Pharmacol. Toxicol. 20:441-462 (1980). The post-drug threshold is compared to the pre-drug threshold and the percent reversal of tactile sensitivity is calculated based on a normal threshold of 15.1 grams. […] Compared to a saline solution, this compound reversed the allodynic pain by 25% at an i.p. dose of 100 ng/kg, 60% at 300 ng/kg, 90% at […] and 92% at 3000 ng/kg.

receptors for PGE2 = conditions: cited from earlier work
[1] = i.p. dose of 100 ng/kg, 30 minutes after drug administration
[2] = i.p. dose of 300 ng/kg, 30 minutes after drug administration

| SMILES | reversal of allodynic pain (percent reversal of tactile sensitivity) (tactile allodynia; i.p. dose of 30 ng/kg, 30 minutes after drug administration) [%] | reversal of allodynic pain (percent reversal of tactile sensitivity) (tactile allodynia; [1]) [%] | reversal of allodynic pain (percent reversal of tactile sensitivity) (tactile allodynia; [2]) [%] | reversal of allodynic pain (percent reversal of tactile sensitivity) (tactile allodynia; i.p., dose figure not printed ("at ng/kg")) [%] | response to the tactile stimuli that indicate tactile allodynia (tactile allodynia; doses between 30 and 3000 ng/kg) | reversal of allodynic pain (percent reversal of tactile sensitivity) (tactile allodynia; i.p. dose of 3000 ng/kg, 30 minutes after drug administration) [%] | reversal of allodynic pain (percent reversal of tactile sensitivity) (tactile allodynia; i.p. dose printed as 100 mg/kg, 30 minutes after drug administration) [%] | effect on PGE2 action in tissue (receptors for PGE2; cat trachea or chick ileum) | effect on PGE2 action in tissue (receptors for PGE2; guinea pig ileum or dog fundus) |
| --- | --- | --- | --- | --- | --- | --- | --- | --- | --- |
| CCN(Cc1cc(Br)ccc1OCc1ccccc1)c1ccc(C(=O)O)cn1 [6-[(2-Benzyloxy-5-bromobenzyl)ethylamino]nicotinic acid] | 10 | 50 | 55 | 60 | – | – | – | – | – |
| CCN(Cc1ccccc1SCc1ccccc1)c1ccc(C(=O)O)cn1 [Example 7, 6-[(2-Benzylsulfanylbenzyl)ethylamino]nicotinic acid] | – | 25 | 60 | – | able to reduce the response to the tactile stimuli | 92 | 90 | – | – |
| CC(=O)NNC(=O)N1Cc2ccccc2Oc2ccc(Cl)cc21 [SC-19220] | – | – | – | – | – | – | – | not on other tissues | blocks the effect of PGE2 |
